The text below walks through data of US5223507A, “Method of using opioid compounds as delta opioid selective agonist analgesics” (G. D. Searle & Co., priority 1992, dated 1993).

Where a name gives a salt, the structure may show the parent alone. Read-outs that look alike come from different tables or passages of the source.

The test system of one assay is mice. As to the kind of experiment: Phenylbenzoquinone (PBQ) Writhing Assay. Type of assay: in vivo, mouse (Charles River male albino mice). The note with it: for ED50: Mus musculus, 0.5 h. From the text: The Writhing Assay is one of the most widely-used experimental procedures for measuring the analgesic activity of different narcotic and nonnarcotic analgesic agents, and involves the continuous, chemically-induced pain of visceral origin to an animal, such as a mouse or rat. [Gyires et al., Arch. int. Pharmacodyn, 267, 131-140 (1984); C. Vander Wende et al., Fed. Proc., 15, 494 (1956); Koster et al., Fed. Proc., 18, 412 (1959); and Witken et al., J. PharmacoI. exp. Tger., 133, 400-408 (1961).] Chemicals which may be used to induce this pain include phenylbenzoquinone (PBQ) and acetic acid. As a result of the chemical irritation to the animal, a characteristic stretching and writhing of the animal (dorsiflexion of the animal's back, extension of its hindlimbs and the strong contraction of its abdominal musculature) will generally occur. […] Drugs which reduce the number of writhes of the animal appear to restore the normal nociceptive threshold of the animal.
Charles River male albino mice, weighing 20 to 30 grams were used in this assay.
Thirty minutes after subcutaneous or intragastric administration to ten mice of either 10 mg or 30 mg per kilogram of body weight of a compound of the present invention ("test compound"), […] of body weight of a 0.025% w/v solution of PBQ was injected intraperitoneally into each mouse. Ten mice which were given saline in place of a test compound of the invention were used as a control group.
Five minutes later, each mouse was individually placed into a glass beaker for observation, and the number of writhes occurring during the following ten-minute period was counted.
A test compound was considered to be "active" in this assay (to have produced analgesia in a mouse) if, after the administration of the compound to the mouse, the number of writhes elicited by a mouse injected with PBQ was equal to, or less than, one-half the median number of writhes recorded for the saline-treated control group of mice that day, as described by Taber in "Predictive Value of Analgesic Assays in Mice and Rats," Advances in Biochemical Psychopharmacology, 8, 191 (1974).
The standard initial screening doses of a test compound employed in this assay were 10 and/or 30 […] for both routes of administration.

Another assay addresses δ opioid receptors (Rattus norvegicus, UniProt P33533). As to the kind of experiment: Opiate Binding Assay, displacement of 3[H]-DSLET (δ receptor). Conditions: for Mean IC50 μ/δ Ratio: ratio of mean IC50 values for μ and δ opioid receptors; for Percent Inhibition, delta: rat forebrain membranes, 3[H]-DSLET.
The next assay deals with μ opioid receptors (Rattus norvegicus, UniProt P33535). The assay is described as follows: Opiate Binding Assay, displacement of 3[H]-DAMGO (μ receptor). Conditions: for Percent Inhibition, mu: at 100 nm, rat forebrain membranes, 3[H]-DAMGO.
Setting [1] is: po, intragastric, 30 min before PBQ, read-out: PBQ WRITHING ASSAY ED50 (mpk) I.G.
The mark [2] stands for this setting: subcutaneous, screening doses 10 and/or 30 mpk.
Setting [3] is: intragastric, 30 min before PBQ.

Sequence of δ opioid receptors (P33533 whole entry): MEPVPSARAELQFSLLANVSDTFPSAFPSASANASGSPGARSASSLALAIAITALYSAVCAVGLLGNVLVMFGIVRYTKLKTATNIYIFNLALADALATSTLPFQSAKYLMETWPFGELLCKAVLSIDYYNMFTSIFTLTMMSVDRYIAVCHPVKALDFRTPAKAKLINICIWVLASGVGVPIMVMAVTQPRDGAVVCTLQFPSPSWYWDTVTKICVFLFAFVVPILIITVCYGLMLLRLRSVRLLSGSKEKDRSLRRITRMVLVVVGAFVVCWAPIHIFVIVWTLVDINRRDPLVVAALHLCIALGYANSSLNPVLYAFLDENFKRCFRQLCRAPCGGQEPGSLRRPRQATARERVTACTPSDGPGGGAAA
Sequence of μ opioid receptors (P33535 whole entry): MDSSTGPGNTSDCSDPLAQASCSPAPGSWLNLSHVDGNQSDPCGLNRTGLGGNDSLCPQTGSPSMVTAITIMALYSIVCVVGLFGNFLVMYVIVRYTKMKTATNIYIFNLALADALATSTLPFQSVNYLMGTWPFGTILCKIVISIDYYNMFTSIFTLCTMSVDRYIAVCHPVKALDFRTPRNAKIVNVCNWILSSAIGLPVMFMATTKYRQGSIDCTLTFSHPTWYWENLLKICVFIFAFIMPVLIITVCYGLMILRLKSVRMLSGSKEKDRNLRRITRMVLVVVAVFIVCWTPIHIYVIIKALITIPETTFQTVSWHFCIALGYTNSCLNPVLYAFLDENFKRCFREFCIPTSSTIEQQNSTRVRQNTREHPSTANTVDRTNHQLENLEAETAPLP

Take `COc1ccc2c3c1O[C@H]1c4oc5ccccc5c4C[C@@]4(OC)[C@@H](C2)N(C)CC[C@]314` [IV, 2 6,7,8,14bβ-Hexahydro-1,8aβ-(9H)-dimethoxy-7-methyl-4,8(R,α)-methano-4bS^* -5H-bisbenzofuro [3,2-e:2',3'-g]isoquinoline]: in the assay with mice (setting [1]), the ED50 (as a rule, the dose at which the effect has come halfway, by size or by number of responders) turned out to be 2.2 mg/kg. The “Number of mice in 10 exhibiting inhibition of writhing, S.C.” value in the assay on mice (setting [2]) is given as 6/10. Further, at δ opioid receptors, the IC50 – broadly, the concentration needed to halve the response being measured – is 0.0435 µM and the “Mean IC50 μ/δ Ratio” value was 446. At μ opioid receptors, this molecule gave an IC50 of 21.2 µM.

With `Oc1ccc2c3c1O[C@H]1c4oc5ccccc5c4C[C@@]4(O)[C@@H](C2)N(CC2CCC2)CC[C@]314` [XV, 6,7,8,14bβ-Tetrahydro-7-(cyclobutylmethyl)-4,8 (R,α)-methano-4bS^* -5H-bisbenzofuro [3,2-e:2',3'-g]isoquinoline-1,8aβ(9H)-diol, monohydrochloride], the IC50 on δ opioid receptors amounted to 0.0051 µM; on μ opioid receptors it was 0.69 µM. The “Mean IC50 μ/δ Ratio” value on δ opioid receptors is recorded as 135.

Take `CN1CC[C@]23c4c5ccc(O)c4O[C@H]2c2[nH]c4c(ccc6ccccc64)c2C[C@@]3(O)[C@H]1C5` [III, 5,6,7,8,16, 16bβ-Hexahydro-7-methyl-4,8(R, α)-methano-4BS^* -benzo[i]benzofuro [2,3-a]pyrido[4,3-b]carbazole-1,8aβ(9H)-diol, monohydrochloride]: the “PBQ WRITHING ASSAY ED50 (mpk) I.G.” value in the assay on mice (setting [3]) is “inactive”. Besides, the “Number of mice in 10 exhibiting inhibition of writhing, S.C.” value in the assay with mice (setting [2]) is reported as 5/10. Further, at δ opioid receptors, the IC50 came to 0.0208 µM and the “Mean IC50 μ/δ Ratio” value is listed as 26. This molecule also came in with an IC50 at μ opioid receptors of 0.55 µM.

In the case of `C=CCN1CC[C@]23c4c5ccc(O)c4O[C@H]2c2[nH]c4c(Br)cccc4c2C[C@@]3(O)[C@H]1C5` [X, 13-Bromo-5,6,7,8,14, 14bβ-hexahydro-7-(2-propenyl)-4,8(R,α)-methano-4bS^* -benzofuro [2,3-a]pyrido[4,3-b]carbazole-1,8aβ(9H)-diol monohydrochloride], the “Number of mice in 10 exhibiting inhibition of writhing, I.G.” value in the assay with mice (intragastric, screening doses 10 and/or 30 mpk) was 5/10. Also, the “Number of mice in 10 exhibiting inhibition of writhing, S.C.” value with mice (setting [2]) is reported as 5/10. In addition, at δ opioid receptors, the IC50 turned out to be 0.0111 µM and the “Mean IC50 μ/δ Ratio” value is on record as 350. For the same molecule, the IC50 on μ opioid receptors turned out to be 3.9 µM.

Turning to `CN1CC[C@]23c4c5ccc(O)c4O[C@H]2c2[nH]c4c(Br)cccc4c2C[C@H]3[C@H]1C5` [XIII, 13-Bromo-5,6,7,8,8a,9,14,14bβ-octahydro-7-methyl-4,8(R,α)-methano-4bS^* -benzofuro [2,3-a]pyrido[4,3-b]carbazol-1-ol, monohydrochloride], in the assay on mice (setting [3]), the “PBQ WRITHING ASSAY ED50 (mpk) I.G.” value is “inactive”. Also, the “Number of mice in 10 exhibiting inhibition of writhing, S.C.” value in the assay with mice (setting [2]) is 4/10. Also, the IC50 at δ opioid receptors is 0.052 µM; at μ opioid receptors it was 0.265 µM. The “Mean IC50 μ/δ Ratio” value at δ opioid receptors is reported as 5.1.

Turning to `CC(=O)O[C@@]12Cc3c([nH]c4ccccc34)[C@@H]3Oc4c(O)ccc5c4[C@@]31CCN(C)[C@@H]2C5` [XIX, 5,6,7,8,14,14bβ-Hexahydro-7-methyl-4,8(R,α-methano-4bS^* -benzofuro[2,3-a]pyrido[4,3-b]carbazole-1,8aβ-9H)-dio1,8a-acetate monohydrochloride], on δ opioid receptors, the IC50 was 0.001 µM and the “Mean IC50 μ/δ Ratio” value amounted to 769. The IC50 at μ opioid receptors came out at 0.769 µM.

As for `COc1ccc2c3c1O[C@H]1c4oc5ccccc5c4C[C@@]4(O)[C@@H](C2)N(C)CC[C@]314` [V, 6,7,8,14bβ-Tetrahydro-1-methoxy-7-methyl-4,8(R,α)-methano-4bS^* -5H-bisbenzofuro [3,2-e:2',3'-g]isoquinolin-8aβ(9H)-ol], in the assay on mice (setting [1]), the 50% effective dose (ED50) came out at 2.7 mg/kg. Besides, the “PBQ WRITHING ASSAY ED50 (mpk) S.C.” value with mice (subcutaneous, 30 min before PBQ) is “inactive”. In addition, the “Percent Inhibition, delta” value at δ opioid receptors (at 100 nm) is listed as 72%. Moreover, on μ opioid receptors, the “Percent Inhibition, mu” value was determined as 2%.

Take `CC(=O)Oc1ccc2c3c1O[C@H]1c4[nH]c5ccccc5c4C[C@@]4(O)[C@@H](C2)N(C)CC[C@]314` [XVII, 5,6,7,8,14,14bβ-Hexahydro-7-methyl-4,8 (R,α)-methano-4bS^* -benzofuro[2,3-a] pyrido[4,3-b]carbazole-1,8aβ(9H)-diol, 1-acetate]: on δ opioid receptors, the IC50 is 0.034 µM and the “Mean IC50 μ/δ Ratio” value was 38. In addition, on μ opioid receptors, the IC50 amounted to 1.3 µM.

`C=CCN1CC[C@]23c4c5ccc(O)c4O[C@H]2c2[nH]c4ccccc4c2C[C@@]3(O)[C@H]1C5` [VIII, 5,6,7,8,14,14bβ-Hexahydro-7(2-propenyl)-4,8 (R,α)-methano-4bS^* -benzofuro[2,3-a]pyrido[4,3-b] carbazole-1,8aβ(9H)-diol, monohydrochloride]: on δ opioid receptors, the IC50 stood at 0.0014 µM and the “Mean IC50 μ/δ Ratio” value amounted to 71. This molecule showed an IC50 on μ opioid receptors of 0.099 µM.

At δ opioid receptors, `CC(=O)Oc1ccc2c3c1O[C@H]1c4[nH]c5ccccc5c4C[C@@]4(OC(C)=O)[C@@H](C2)N(C)CC[C@]314` [XVIII, 5,6,7,8,14,14bβ-Hexahydro-7-methyl-4,8(R,α)-methano-4bS^* -benzofuro[2,3-a] pyrido[4,3-b]carbazole-1,8aβ-9H)-diol, diacetate, monohydrochloride] showed an IC50 of 0.0664 µM. Moreover, at μ opioid receptors, the “Percent Inhibition, mu” value is 72%.

`CN1CC[C@]23c4c5ccc(O)c4O[C@H]2c2[nH]c4c(Br)cc(Br)cc4c2C[C@@]3(O)[C@H]1C5` [VI, 11,13-Dibromo-5,6,7,8,14,14bβ-hexahydro-7-methyl-4,8(R,α)-methano-4bS^* -benzofuro[2,3-a]pyrido[4,3-b] carbazole-1,8aβ(9H)-diol, monohydrochloride]: the “PBQ WRITHING ASSAY ED50 (mpk) I.G.” value in the assay on mice (setting [3]) was “inactive”. Besides, in the assay with mice (setting [2]), the “Number of mice in 10 exhibiting inhibition of writhing, S.C.” value is on record as 6/10. Also, at δ opioid receptors (10 nm), the “Percent Inhibition, delta” value is on record as 11%.

Turning to `CN1CC[C@]23c4c5ccc(O)c4O[C@H]2c2[nH]c4ccccc4c2C[C@@]3(O)[C@H]1C5` [I, 5,6,7,8,14,14bβ-Hexahydro-7-methyl-4,8(R,α)-methano-4bS^* -benzofuro[2,3-a]pyrido[4,3-b]carbazole-1, 8aβ(9H)-diol, monohydrochloride], at δ opioid receptors, the IC50 amounted to 0.0026 µM and the “Mean IC50 μ/δ Ratio” value came to 58. On μ opioid receptors, this molecule registered an IC50 of 0.152 µM.

Consider `CN1CC[C@]23c4c5ccc(O)c4O[C@H]2c2[nH]c4ccccc4c2C[C@H]3[C@H]1C5` [XII, 5,6,7,8,8a,9,14, 14bβ-Octahydro-7-methyl-4,8(R,α)-methano-4bS^* -benzofuro[2,3-a] pyrido[4,3-b]carbazol-1-ol, monohydrochloride], for which, at δ opioid receptors, the IC50 came to 0.0049 µM and the “Mean IC50 μ/δ Ratio” value is 11.8. Besides, the IC50 on μ opioid receptors turned out to be 0.058 µM.

On to `CN1CC[C@]23c4c5ccc(O)c4O[C@H]2c2[nH]c4c(Br)cccc4c2C[C@@]3(O)[C@H]1C5` [VII, 13-Bromo-5,6,7,8,14bβ-hexahydro-7-methyl-4,8(R,α)-methano-4bS^* -benzofuro[2,3-a]pyrido [4,3-b]carbazole-1,8aβ(9H)-diol, monohydrochloride], for which the ED50 with mice (setting [1]) was 2.3 mg/kg; in the assay on mice (sc, subcutaneous, 30 min before PBQ, read-out: PBQ WRITHING ASSAY ED50 (mpk) S.C.), 0.9 mg/kg. The IC50 at δ opioid receptors worked out at 0.01 µM; at μ opioid receptors, 0.253 µM. In addition, the “Mean IC50 μ/δ Ratio” value on δ opioid receptors is listed as 25.3.

For `CCCN1CC[C@]23c4c5ccc(O)c4O[C@H]2c2oc4ccccc4c2C[C@@]3(O)[C@H]1C5` [XIV, 6,7,8,14bβ-Tetrahydro-7-propyl-4,8(R,α)-methano-4bS^* -5H-bisbenzofuro[3,2-e:2',3'-g] isoquinoline-1,8aβ(9H)-diol, monohydrochloride], on δ opioid receptors, the IC50 was 0.0077 µM and the “Mean IC50 μ/δ Ratio” value came to 26. The molecule also gave an IC50 on μ opioid receptors of 0.2 µM.
